Here are results for three compounds from US20150231236A1, “METHODS FOR TREATING PATIENTS WITH HYPERCHOLESTEROLEMIA THAT IS NOT ADEQUATELY CONTROLLED BY MODERATE-DOSE STATIN THERAPY” (Regeneron Pharmaceuticals, Inc., priority 2014, published 2015).

This assay deals with patients with hypercholesterolemia at high CV risk not adequately controlled with atorvastatin (20 mg or 40 mg). In words: Example 2: randomized, double-blind trial, lipid efficacy of mAb316P add-on to atorvastatin vs EZE add-on, atorvastatin dose doubling or switch to rosuvastatin. Type of assay: in vivo, human. Particulars: for LDL-C W24 % change from baseline, LS mean (SE): ITT population, treatment arm as labelled; for LDL-C W24 % change from baseline, LS mean (SE) / reduced LDL-C levels by / Proportion of Patients Reaching LDL-C goal (%): week 24; for reduced LDL-C levels by: add-on mAb316P; for Proportion of Patients Reaching LDL-C goal (%): calculated LDL-C <70 mg/dL very high risk or <100 mg/dL high risk, combined estimate. Here is the method: The present study was a randomized, double-blind, active-comparator, parallel-group study in patients at high CV risk with non-FH or heFH who are not adequately controlled with atorvastatin (20 mg or 40 mg) with or without other lipid-modifying therapy (LMT) (excluding EZE). The study design is illustrated in FIG. 1. Patients who entered the study were taking either atorvastatin 20 mg or atorvastatin 40 mg. The former patients were randomized to 1 of 3 treatment arms (arms 1 to 3); the latter patients were randomized to 1 of 4 treatment arms (arms 4 to 7). The treatment arms are as follows:
(1) mAb316P+atorvastatin 20 mg+placebo-EZE; (2) Placebo-mAb316P+atorvastatin 40 mg+placebo-EZE; and (3) Placebo-mAb316P+atorvastatin 20 mg+EZE 10 mg.
(4) mAb316P+atorvastatin 40 mg+placebo-EZE; (5) Placebo-mAb316P+atorvastatin 80 mg+placebo-EZE; (6). Placebo-mAb316P+rosuvastatin 40 mg+placebo-EZE; and (7) Placebo-mAb316P+atorvastatin 40 mg+EZE 10 mg.
(B) a double-blind treatment period of 24 weeks. Each patient received a SC injection Q2W (mAb316P or placebo-mAb316P) and was administered (or instructed to take) 2 oral blinded medications daily (a statin [atorvastatin or rosuvastatin] and EZE or placebo-EZE). The first injection of mAb316P or placebo-mAb316P was administered at the clinical site on day 1, after study assessments were completed, and as soon as possible after the patient was randomized into the study. The patient/caregiver administered subsequent injections outside of the clinic according to the dosing schedule. On days where the clinic study visit coincided with dosing, the dose of study drugs (injectable and oral) were administered after all study assessments had been performed and all laboratory samples collected. The last dose of mAb316P or placebo-mAb316P was administered at week 22. The last dose of daily oral study drugs was administered at week 24. At week 12, based on their baseline CV risk, certain patients randomized to mAb316P in a blinded manner, had their dose increased as follows:
Each patient received a subcutaneous (SC) injection once every two weeks (Q2W) (mAb316P or placebo-mAb316P) and took 2 oral blinded medications daily (a statin [atorvastatin or rosuvastatin] and EZE or placebo-EZE).
The injectable study treatment was a single SC injection of 1 mL for a 75 mg or 150 mg dose of mAb316P or placebo-mAb316P provided in an auto-injector, administered in the abdomen, thigh, or outer area of the upper arm. The first injection of study drug was administered at the clinical site, as soon as possible after the patient was randomized into the study. The patient was monitored at the clinical site for at least 30 minutes following the first injection. The patient/caregiver administered subsequent injections outside of the clinic, according to the dosing schedule. On days where the clinic study visit coincided with dosing, the dose of study drug was administered after all study assessments have been performed and all laboratory samples collected.
The dose of mAb316P was increased, in a blinded manner, from 75 mg to 150 mg SC Q2W, starting at week 12, based on baseline CV risk in the following circumstances:
The primary efficacy endpoint was the percent change in calculated LDL-C from baseline to week 24, which is defined as: 100× (calculated LDL-C value at week 24−calculated LDL-C value at baseline)/calculated LDL-C value at baseline. The baseline calculated LDL-C value was the last LDL-C level obtained before the first double-blind study drug injection. The calculated LDL-C at week 24 will be the LDL-C level obtained within the week 24 analysis window and during the main efficacy period. The main efficacy period was defined as the time from the first double-blind study drug injection up to 21 days after the last double-blind study drug injection or up to the upper limit of the week 24 analysis window, whichever comes first.
Total-C, HDL-C, TG, ApoB, ApoA-1, and Lp (a) were directly measured by a central laboratory. […]

Regarding `CC(C)c1c(C(=O)Nc2ccccc2)c(-c2ccccc2)c(-c2ccc(F)cc2)n1CC[C@@H](O)C[C@@H](O)CC(=O)O` [atorvastatin, reference compound], the “LDL-C W24 % change from baseline, LS mean (SE)” value (“LDL-C W24 % change … (SE)” below) is reported as −5.0% (listed as ATV 40) and −4.8% (listed as ATV 80). For the same compound, the “Calculated LDL-C LS mean (SE), % Change from Baseline” value runs as follows: (Week 4, listed as ATV 40) −9.9 (3.4) %; (Week 4, listed as ATV 80) −11.7 (2.7) %; (Week 8, listed as ATV 40) −12.6 (3.8) %; (Week 8, listed as ATV 80) −13.1 (3.1) %; (Week 12, listed as ATV 40) −8.5 (3.9) %; (Week 12, listed as ATV 80) −14.5 (3.2) %. In addition, the “Calculated LDL-C LS mean (SE), % Change from Baseline” value is −8.2 (3.9) % (Week 16, listed as ATV 40); −8.0 (3.4) % (Week 16, listed as ATV 80); −5.0 (4.6) % (Week 24, listed as ATV 40); −4.8 (4.2) % (Week 24, listed as ATV 80). Besides, the “Calculated LDL-C LS mean (SE), Change from Baseline” value is −12.9 (3.6) (Week 4, listed as ATV 40); −15.3 (2.9) (Week 4, listed as ATV 80); −15.1 (4.1) (Week 8, listed as ATV 40); −17.2 (3.2) (Week 8, listed as ATV 80); −11.9 (4.3) (Week 12, listed as ATV 40); −17.9 (3.4) (Week 12, listed as ATV 80). The “Calculated LDL-C LS mean (SE), Change from Baseline” value runs as follows: (Week 16, listed as ATV 40) −10.9 (4.3); (Week 16, listed as ATV 80) −11.3 (3.8); (Week 24, listed as ATV 40) −7.9 (4.7); (Week 24, listed as ATV 80) −8.7 (4.5). The “Calculated LDL-C LS mean (SE), Value (mg/dL)” value (Week 4, listed as ATV 40) is reported as 88.9 (3.6) mg/dL; the “Calculated LDL-C LS mean (SE), Value (mg/dL)” value (Week 4, listed as ATV 80) was 93.4 (2.9) mg/dL; the “Calculated LDL-C LS mean (SE), Value (mg/dL)” value (Week 8, listed as ATV 40) is recorded as 86.7 (4.1) mg/dL; the “Calculated LDL-C LS mean (SE), Value (mg/dL)” value (Week 8, listed as ATV 80) is 91.5 (3.2) mg/dL; the “Calculated LDL-C LS mean (SE), Value (mg/dL)” value (Week 12, listed as ATV 40) is listed as 89.9 (4.3) mg/dL; the “Calculated LDL-C LS mean (SE), Value (mg/dL)” value (Week 12, listed as ATV 80) is reported as 90.8 (3.4) mg/dL. For the same compound, the “Calculated LDL-C LS mean (SE), Value (mg/dL)” value was 90.9 (4.3) mg/dL (Week 16, listed as ATV 40); 97.4 (3.8) mg/dL (Week 16, listed as ATV 80); 93.9 (4.7) mg/dL (Week 24, listed as ATV 40); 100.0 (4.5) mg/dL (Week 24, listed as ATV 80). For the same compound, the “reduced LDL-C levels by” value came to 5.0% (atorvastatin 20 mg regimen, add-on ezetimibe or doubling of atorvastatin dose) and 4.8% (atorvastatin 40 mg regimen, add-on ezetimibe, doubling of atorvastatin dose or switch to rosuvastatin 40 mg). Further, the “Proportion of Patients Reaching LDL-C goal (%)” value (shortened to “Proportion … (%)”) is on record as 34.5% (listed as ATV 40) and 15.4% (listed as ATV 80).
“mAb316P + ATV 20: treatment arm: mAb316P 75/150 mg Q2W + atorvastatin 20 mg daily”: the “LDL-C W24 % change … (SE)” value is given as −44.1% and the “Proportion … (%)” value was 87.2%. Under “Week 4”, the “Calculated LDL-C LS mean (SE), % Change from Baseline” value is −53.3 (3.4) %; the “Calculated LDL-C LS mean (SE), Change from Baseline” value was −55.8 (3.5); the “Calculated LDL-C LS mean (SE), Value (mg/dL)” value was 46.0 (3.5) mg/dL. Under “Week 8”, the “Calculated LDL-C LS mean (SE), % Change from Baseline” value is −51.2 (3.8) %; the “Calculated LDL-C LS mean (SE), Change from Baseline” value is listed as −51.4 (4.1); the “Calculated LDL-C LS mean (SE), Value (mg/dL)” value is listed as 50.4 (4.1) mg/dL. Where the note is “Week 12”, the “Calculated LDL-C LS mean (SE), % Change from Baseline” value is listed as −48.4 (3.8) %; the “Calculated LDL-C LS mean (SE), Change from Baseline” value is given as −49.0 (4.2); the “Calculated LDL-C LS mean (SE), Value (mg/dL)” value is given as 52.8 (4.2) mg/dL. Besides, for the setting “Week 16”, the “Calculated LDL-C LS mean (SE), % Change from Baseline” value was −53.8 (3.9) %; the “Calculated LDL-C LS mean (SE), Change from Baseline” value is on record as −54.8 (4.3); the “Calculated LDL-C LS mean (SE), Value (mg/dL)” value is listed as 47.0 (4.3) mg/dL. In addition, for the setting “Week 24”, the “Calculated LDL-C LS mean (SE), % Change from Baseline” value is on record as −44.1 (4.5) %; the “Calculated LDL-C LS mean (SE), Change from Baseline” value is −47.5 (4.7); the “Calculated LDL-C LS mean (SE), Value (mg/dL)” value is recorded as 54.3 (4.7) mg/dL.
Regarding “mAb316P + ATV 40: treatment arm: mAb316P 75/150 mg Q2W + atorvastatin 40 mg daily”, the “LDL-C W24 % change … (SE)” value is on record as −54.0% and the “Proportion … (%)” value is on record as 82.4%. Under “Week 4”, the “Calculated LDL-C LS mean (SE), % Change from Baseline” value is −56.5 (2.8) %; the “Calculated LDL-C LS mean (SE), Change from Baseline” value was −63.2 (2.9); the “Calculated LDL-C LS mean (SE), Value (mg/dL)” value is recorded as 45.5 (2.9) mg/dL. Also, where the note is “Week 8”, the “Calculated LDL-C LS mean (SE), % Change from Baseline” value is given as −55.7 (3.2) %; the “Calculated LDL-C LS mean (SE), Change from Baseline” value is on record as −63.4 (3.3); the “Calculated LDL-C LS mean (SE), Value (mg/dL)” value was 45.3 (3.3) mg/dL. Further, where the note is “Week 12”, the “Calculated LDL-C LS mean (SE), % Change from Baseline” value is −50.5 (3.2) %; the “Calculated LDL-C LS mean (SE), Change from Baseline” value was −56.9 (3.5); the “Calculated LDL-C LS mean (SE), Value (mg/dL)” value was 51.8 (3.5) mg/dL. For the setting “Week 16”, the “Calculated LDL-C LS mean (SE), % Change from Baseline” value was −56.9 (3.5) %; the “Calculated LDL-C LS mean (SE), Change from Baseline” value is reported as −64.3 (3.9); the “Calculated LDL-C LS mean (SE), Value (mg/dL)” value is listed as 44.4 (3.9) mg/dL. Further, under “Week 24”, the “Calculated LDL-C LS mean (SE), % Change from Baseline” value is −54.0 (4.3) %; the “Calculated LDL-C LS mean (SE), Change from Baseline” value is listed as −62.3 (4.6); the “Calculated LDL-C LS mean (SE), Value (mg/dL)” value is listed as 46.4 (4.6) mg/dL.
